Measurements as given in patent US20240139125A1 (INDUSTRIAL COOPERATION FOUNDATION JEONBUK NATIONAL …, priority 2020, published 2024).

What was measured:
[1] = system: MDA-MB-231; test: Cell proliferation/viability with BIA, IC50 after 3 days; format: cell-based; details: Homo sapiens, 72 h; MDA-MB-231 cells, treatment for 3 days
[2] = system: BI-1 (TMBIM6) knockout HT1080 cells; test: Cell proliferation of knockout cells with BIA (off-target check); format: cell-based
Protocol: BI-1 (TMBIM6) WT HT1080 cells, BI-1 (TMBIM6) knockout HT1080 , human breast cancer cell lines MCF7, MDA-MB-231 and SKBR3 were treated with BIA 0.5, 1.0, 2.0, 5.0, 10.0 μM and cell proliferation was confirmed. Cells with proliferation of all cell lines by 5 μM BIA treatment It was confirmed that viability was inhibited (see FIG. 57).
Cell proliferation in BI-1 (TMBIM6) knockout HT1080 cells was investigated to determine if the antiproliferative effect by BIA at this dose was an off-target effect. The cell proliferation rate and AKT phosphorylation of BI-1 (TMBIM6) knockout HT1080 cells were the same with or without BIA except for high concentrations of “20 and 30 μM” (see FIG. 57).
Cell proliferation was investigated in BI-1 (TMBIM6) knockout HT1080 cells to determine if the antiproliferative effect by BIA at the dose was a non-targeted effect. The cell proliferation rate and AKT phosphorylation of BI-1 (TMBIM6) knockout HT1080 cells were the same in the treated and untreated groups of BIA except for high concentrations of “20 and 30 μM” (see FIGS. 63A and 63B).

[3] = system: SARS-CoV2 virus; test: MTT cell viability of Vero E6 cells infected with SARS-CoV2; format: cell-based; details: Vero E6, SARS-CoV2 0.1 MOI, 500 nM, 24 hours after treatment; control DMSO-S 66.52±2.28%; 0.5 µM
Protocol: Vero E6 cells, monkey kidney cell masters, were dispensed at 1×10^4 cells/well per well in 96 well plates and incubated at 37° C., 5% CO2 incubators for 24 hours. SARS-CoV2 to infect Vero E6 cells was S ARS-CoV 43326 distributed from the National Pathogen Resource Bank, and DMEM (2% FBS, 1% antibiotic-antimycotic) medium was dispensed at 100 μL/well to infect 0.1 MOI. For 1 hour The virus was removed after 1 hour of infection in a 37° C., 5% CO2 incubator.
Next, samples prepared so that BIA or analogue compounds were finally 500 nM were dispensed 100 μL/well, including the culture medium, and then treated in a 37° C., 5% CO2 incubator for 24 hours. In the same way, the group treated with 2 μM, 5 μM, or 10 μM of Remdesivir (Rem) was a positive control.
Check the condition of the cells, add 100 μL/well of 0.5 mg/ml MTT solution, react in a 37° C., 5% CO2 incubator for 4 hours, wash out the media, and DMSO to the cells by 100 μL/well After sufficient dissolution, absorbance was measured at 540 nm with a plate reader to evaluate cell viability.
To confirm the possibility of viral prevention and therapeutic effects of BIA and its analogue compounds, 500 nM treatment of BIA analogue at the same time as viral infection, and then MTT assay whether the viability of cells against viral infection is improved after 24 hours. The results confirmed are shown in the graph of FIG. 82.

[4] = system: tumors derived from HT1080 cells; test: Xenograft in nude mice; format: in vivo; details: 1 mg/kg BIA, 5 days a week, 25 days
Protocol: Mice purchased 20-25 g of BALBc/Nude and conducted experiments after 1 week of preliminary breeding to adapt to the laboratory environment. This experiment was approved by the Animal Experiment Ethics Committee of Chonbuk National University (CBNU 201 5-064, CBNU 2016-56) and was carried out according to standard work instructions, and the conditions in the breeding room were kept constant temperature and relative humidity, a 12-hour contrast cycle, and water and feed were freely consumed. Experimental animals are transplanted subcutaneously with 5×10^6 cells per mouse using HT1080 cell line and MDA-MB-231 cell line, and after 7-10 days, mice forming tumor sizes of 100 mm^3 are randomly divided into control and experimental groups. […] The tumor size was measured with a caliper and calculated using the following formula: […]
In culture, exponentially growing BI-1 (TMBIM6) knockout and WT HT1080 cells were treated with trypsin and quantified through trypan blue staining differentiation, and 3-5×10^6 cells were resuspended in 0.1 ml PBS. […]
After 25-28 days, the mice were euthanized, solid tumors were incised, and tumor volumes were recorded. Tumor size was measured with a caliper. The tumor volume (mm^3) was calculated by the formula [(shortest diameter)2×longest diameter]/2. […]

[5] = system: AKT serine phosphorylation (S473); test: AKT phosphorylation by Western blotting; format: cell-based
Protocol: This is AKT signaling key to cancer cell growth, and BIA and its analogues tend to inhibit it. Only representative experimental results were presented. Data were expressed as mean±SD. After one-way ANOVA, Tukey's post hoc test is conducted.
After cell recovery, cell lytic buffer (10 mM Tris-Cl (pH 7.4), 5 mM EDTA, 130 mM NaCl, 1% Triton X-100) and protease inhibitor mix protease inhibitor cocktail (protease inhibitor cocktail and phosphatase inhibitor cocktail) were added and left at 4° C. for 30 minutes. After breaking the cells with ultrasound, they were centrifuged at 13,000× g at 4° C. for 30 minutes, and then the supernatant was taken, and the concentration was quantified using a protein quantification kit (Bio-Rad Laboratories, Hercules, CA, USA). 20 ug of the obtained protein was electrophoresis with polyacrylamide gel electrophoresis (SDS-PAGE) followed by electrotransfer to PVDF membrane (Bio-Rad). The membrane was blocked at room temperature for 1 hour with a TBS-T solution (20 mM Tris (pH 7.5), 137 mM NaCl, 0.05% Triton X-100) containing 5% skim milk. Then, after switching to a solution containing the primary antibody, it was reacted at 4° C. The membrane after the reaction was washed three times with TBS-T solution, reacted with a secondary antibody, and then luminesced using an ECL kit and autoradiography. […]

In the case of `Nc1ccccc1C(=O)/C=C/c1cccc([N+](=O)[O-])c1` [BIA, 2E-1-2-Aminophenyl-3-3-nitrophenyl-2-propen-1-one], the IC50 [1] is reported as 2600 ± 500 nM, the dose-dependent cell survival ([2]; BI-1 (TMBIM6) knockout cells) is reported as “did not show a decrease” and the “cell proliferation rate and AKT phosphorylation with or without BIA” value ([2]; BI-1 knockout HT1080, except for high concentrations of 20 and 30 μM) is reported as “the same”. The cell viability [3] was 77.94±5.51%, the tumor growth [4] was “significantly impaired” and the “phosphorylation of AKT” value ([5]; BIA-treated cells, following loss of BI-1/mTORC2/ribosome binding) was “complete reduction”. For the same molecule, the “AKT serine phosphorylation S473” value ([5]; HT1080 cells, 1 or 2 μM) was “inhibited”, the “phosphorylation of AKT” value ([5]; MDA-MB-231 cells, 1 or 2 μM) was “equally inhibited” and the “phosphorylation of AKT” value ([5]; SKBR3 cells, 1 or 2 μM) was “equally inhibited”.
